Laboratory results taken from paper PMC8845285, “Serotoninergic receptor ligands improve Tamoxifen effectiveness on breast cancer cells” (BMC Cancer, 2022).

Legend:
Type in all cases: cell-based, human
[1] = test system: Tamoxifen-cultured MCF7 cells; assay: Tamoxifen-cultured MCF7 cell viability, sulforhodamine B assay; settings: Tamoxifen 5 μM, E2 100 nM, 72 h
Description: (§1) Cells were fixed with 50% trichloroacetic acid for at least 2 h at 4 °C, washed with distilled and de-ionized water, air-dryed and stained 30 min with 0.4% sulforhodamine B in 1% acetic acid. Unbound dye was removed and 10 mM tris-HCl solution (pH 7.5) was added to dissolve the protein-bound dye. Cell survival was assessed by optical density determination at 510 nm using a microplate reader.
To further investigate the effect of SER79 and SER68 on Tamoxifen responsiveness and CTGF expression in MCF7 cells, we obtained - by a continuous treatment of 10 days with 1 μM Tamoxifen – a cellular model less sensitive to the drug (Tamoxifen-cultured MCF7). We observed that 20 μM SER79, 20 μM and 40 μM SER68, while not 5 μM SER79, reduced viability of Tamoxifen-cultured MCF7 cells by about 40% (adjp<0.01; Fig. 8a). […] However, in the presence of 20 μM SER79, 20 μM and 40 μM SER68, Tamoxifen elicited a further 40% reduction of viability, similar to that achieved in Tamoxifen-responsive MCF7 cells (adjp<0.01; Fig. 8b).
Fig. 8 Effect of SER79 and SER68 on Tamoxifen-cultured MCF7 cells. MCF7 cells were cultured in presence of Tamoxifen (1 μM) for 10 days. Estrogen-starved MCF7 and Tamoxifen-cultured MCF7 cells (48 h) were (a-c) treated with SER79 (20 μM, 5 μM) or SER68 (40 μ, 20 μM), (b) treated with Tamoxifen (5 μM) in presence of SER79 (20 μM, 5 μM) or SER68 (40 μM, 20 μM). All treatments were carried out in presence of E2 (100 nM) for 72 h. As positive control, the cells were treated with (a-c) E2 alone or (b) E2 in absence or in presence of SER (as indicated, dotted line). a,b Cell viability was assessed by sulforhodamine B assay (see Methods). The results were reported as percentage of viable cells compared to positive control, considered as maximum viability (100%). c mRNA levels of CTGF were determined by qPCR (see Methods and Table 1). Data were normalized on Ribosomal Protein S23 (Rps23) gene as internal standard and reported as CTGF mRNA levels in Tamoxifen-cultured MCF7 relative to those in MCF7 cells (dotted line). a-c Graphs represent the mean ± SD of at least three independent triplicate experiments. * denotes statistically significant values compared with (a,b) positive control (*adjp<0.05, ** adjp<0.01) or (c) MCF7 cells (*pval<0.05); # denotes statistically significant values compared with (b) cells treated with Tamoxifen in absence of SER or (c) untreated Tamoxifen-cultured MCF7 cells (#pval<0.01, ##pval<0.0001)

[2] = test system: ABCC1, ABCG1 and ABCG2; assay: ABC transporter mRNA levels in MCF7-R cells, qPCR; settings: Tamoxifen 5 μM, E2 100 nM, 72 h
Description: Total RNA was isolated from cells, quantified (NanoDrop spectrophotometer, Life Technologies, Carlsbad, CA, USA) and reverse transcribed according to the manufacturer’s instructions. Semiquantitative PCR and qPCR assays were performed according to manufacturer’s instructions for Bio-Rad T100 thermal cycler and CFX Connect Real Time system (Biorad, Hercules, CA, USA), respectively. Relative gene expression quantification was measured by 2^−ΔΔCt method normalizing for the reference sample using Rps23 (Ribosomal Protein S23) as housekeeping gene.
Cell viability was measured
(§2) (1 picture or pasted object on this page, not shown here)

[3] = test system: MCF7-R cells; assay: Tamoxifen-resistant MCF7-R cell viability, sulforhodamine B assay; settings: up to 6 μM, E2 100 nM, 72 h
Description: as §1
MCF7 cells were cultured for 4 months in phenol-red free medium supplemented with 10% (C/S) FBS and continuously exposed to Tamoxifen (1 μM). […] To further validate the degree of drug resistance, the expression levels of ABCC1, ABCG1 and ABCG2 – members of ABC transporter family known as involved in multi-drug resistance – were evaluated by Quantitative Real-Time PCR (qPCR; see below) upon cell treatment with 5 μM Tamoxifen for 72 h.
Fig. 9 Effect of SER79 and SER68 on Tamoxifen-resistant (MCF7-R) cells. a Estrogen starved MCF7-R were treated with SER79 (20 μM, 5 μM) or SER68 (20 μM) in presence of E2 (100 nM). b Estrogen-starved MCF7-R were treated with Tamoxifen (5 μM) in presence of E2 and SER79 (20 μM) or SER68 (20 μM). a,b As positive control, the cells were treated with E2 alone, in absence or in presence of SER (dotted line). After 72 h, cell viability was assessed by sulforhodamine B assay (see Methods). The results were reported as percentage of viable cells compared to positive control, considered as maximum viability (100%). c mRNA levels of CTGF were determined by qPCR (see Methods and Table 1) in MCF7-R cells upon treatment with SER68 (20 μM). Data were normalized on Ribosomal Protein S23 (Rps23) gene as internal standard and reported as CTGF mRNA levels in MCF7-R. a-c Graphs represent the mean ± SD of at least three independent triplicate experiments. * denotes statistically significant values compared with (b) positive control or (c) MCF7 cells (*adjp<0.05; **adjp<0.001). # denotes statistically significant values compared with untreated MCF7-R (#pval<0.05) […]
Figure S3. Establishment of MCF7 Tamoxifen re sista n t(M C F7-R) cells. MCF7 cells were cultured with Tamoxifen (1µM), in absence of E2, for 4 months (M C F7-R). (a-b) MCF7 and MCF7-R cells were treated with in c re a s in gconcentration of Tamoxifen […]
As positive control, cells were treated with E2 alone. Cell viability was measured by sulforhodamine B assay (se e Methods). The re su ltswere re p o rte das percentage of viable cells compared to untreated cells, considered as maximum viability (100%). […]
(a ) * denotes statistically significant values compared with untreated cells […]
as §2

## CC/C(=C(\c1ccccc1)c1ccc(OCCN(C)C)cc1)c1ccccc1 [Tamoxifen]
[1]
  effect of Tamoxifen treatment alone on viability of Tamoxifen-cultured MCF7 cells: did not affect viability
[2]
  mRNA levels of ABCC1, ABCG1 and ABCG2 in Tamoxifen-treated MCF7-R cells: higher
[3]
  effect of Tamoxifen on MCF7-R cell viability: did not reduce
